Source: patent publication EP4692059A1, “CATIONIC LIPID HAVING DISULFIDE BOND” (Tohoku University, priority 2023, dated 2024)

Assays:
[1] = system: HeLa cells; assay: In vitro gene expression in HeLa cells (luciferase mRNA-encapsulating LNP, cumulative luminescence in 24 hr)
Description: LNP encapsulating mRNA that expresses luciferase (cationic lipid:DOPC:Chol:DMG-PEG2k = 50:10:40:1 (molar ratio)) was prepared by the method described in [Experimental Example 2], 1.
HeLa cells, which are human cervical cancer cells, were seeded in a 3.5 cm dish at 5.0×10^4 cells/2 mL/Dish 24 hours before transfection. After 24 hr, the medium was changed to a culture medium (D-MEM) containing 0.1 mM D-luciferin. The prepared mRNA-encapsulating LNP was diluted with PBS to an mRNA concentration of about 1 µg/mL. The diluted mRNA-encapsulating LNP solution (about 200 µL, mRNA: 0.2 µg) was added to a 3.5 cm dish, and set in an incubator luminometer KronosDio. The luminescence intensity of luciferase was measured for 2 min every one hour. The cumulative luciferase luminescence intensity in 24 hr was calculated from the obtained time change of expression. […] In Comparative Example, the cationic lipid described in Table 2 was used.

[2] = Particle size, PdI and zeta potential of mRNA-encapsulating LNPs by dynamic light scattering (Experimental Example 6); type: physicochemical; conditions: mRNA-encapsulating LNP
Description: An acidic buffer solution (total amount: 1300 µL) of nucleic acid was prepared by weighing 6.5 µg of mRNA solution (0.6 mg/mL) in a 5 mL tube and adding acidic citrate buffer (20 mM, pH 5.0).
An acidic buffer solution of nucleic acid and an ethanol solution of lipid were each weighed in a syringe. […] The obtained concentrate was diluted with TBS to a lipid concentration of 2 mM to give a dispersion containing LNP.
The particle size, PdI (Polydispersity Index), and zeta potential of the mRNA-encapsulating LNP prepared by the method of the above-mentioned 1 were measured by a dynamic light scattering method (Zetasizer Nano; Malvern). […]

[3] = system: mouse red blood cells; assay: Hemolysis activity (membrane fusion ability) at pH 7.4 and 5.5 (Experimental Example 8); type: cell-based, ICR mice; conditions: physiological pH (7.4); final lipid concentration 100 µM; Fig. 3
Description: LNP encapsulating mRNA that expresses luciferase (cationic lipid:DOPC:Chol:DMG-PEG2k = 52.5:7.5:40:1.5 (molar ratio)) was prepared by the method described in […], 1. As cationic lipid, the cationic lipid of Comparative Example, compound 94, compound 112, compound 162, compound 181, or compound 194 was used.
The collected blood was immediately mixed with 1.0 µL of heparin solution (5000 U/5 mL). About 9 mL of PBS was added to the blood to make the total volume 10 mL. The mixture was then mixed by inversion and centrifuged (4°C, 400 g, 10 min). The supernatant containing plasma components was removed using a Pasteur pipette. About 9 mL of PBS was added to the blood cell components to make the total volume 10 mL, and the mixture was centrifuged again. A similar washing procedure was repeated 4 times to obtain mouse red blood cells.
2, 4, 6, 8, and 10 µL of mouse red blood cells were weighed and diluted with PBS containing 1 w/v% Triton-X100. The entire diluted solution was transferred to a clear 96-well plate, and the absorbance at 545 nm was measured using a plate reader. A calibration curve was created using these samples, and the point where the absorbance reached 1 was determined as the amount of blood cells to be used in the hemolysis assay. Empty LNP solution was weighed into an Eppendorf tube and diluted with malic acid-PBS buffer (pH 5.5, pH 7.4), followed by addition of mouse red blood cells. The final lipid concentration was 100 µM at pH 7.4 and 33.3 µM at pH 5.5, and the final volume of the solution was 250 µL. Each tube was shaken at 1900 rpm for 15 min. Each sample was centrifuged under centrifugation conditions (4°C, 400 g, 5 min), and 100 µL of the supernatant was transferred to a clear 96-well plate and the absorbance at 545 nm was measured. Untreated red blood cells were used as the negative control. 1 w/v% Triton-X was used as the positive control. The hemolysis activity of each sample was calculated using the following formula: Hemolysis activity (%) = 100×(absorbance of each sample - absorbance of negative control)/(absorbance of positive control - absorbance of negative control).

[4] = cationic lipid:DOPC:Chol=49:7.5:42.5:1, dispersion in TBS, dynamic light scattering (Tables 8-1, 8-2)

**Q.** Which results are given for `CCCCCCCC/C=C\CCCCCCCC(=O)Oc1ccc(CC(=O)OCCC2CCN(CCSSCCN3CCC(CCOC(=O)Cc4ccc(OC(=O)CCCCCCC/C=C\CCCCCCCC)cc4)CC3)CC2)cc1` [Comparative Example, reference compound]?
**A.** cumulative luciferase luminescence intensity (RLU) in 24 hr ([1]; LNP cationic lipid:DOPC:Chol:DMG-PEG2k = 50:10:40:1, mRNA 0.2 µg per dish, E+0a means 10^a): 1.85E+07 RLU; relative luminescence intensity ([1]; cumulative intensity in 24 hr relative to cationic lipid of Comparative Example): 1.00; zeta potential (mV) ([2]; cationic lipid:DOPC:Chol=49:7.5:42.5:1, dispersion in TBS (Tables 8-1, 8-2)): -2.68 mV; PdI [2, 4]: 0.075; particle size (nm) [2, 4]: 123.80 nm; hemolysis activity [3]: none
